Results as given in patent publication US9127045B2, “Method of inhibiting bacterial growth and biofilm formation with natural quorum sensing peptides” (UNIVERSITY OF SOUTHERN CALIFORNIA, priority 2005, dated 2015).
Ends that are not written are not given here.

Tests used:
[1] = test system: GTFB expression in the wild-type S. mutans; experiment: Western blot of GTFB expression after addition of CSP to cultures; assay type: cell-based; conditions: CSP added to fresh cultures at time of dilution, 1 to 8 mcg/mL; FIG. 7 panel 1
Method: (§1) For the Western blotting, the bacteria were incubated to the desired optical density, subjected to the freeze-thaw cycle and mixed with the sample loading buffer. The samples were heated at 100° C. for 15 minutes and subjected to the PAGE. The number of cells per lane of the gel was kept constant at 10^8 cells. The western blotting was performed in accordance with a standard procedure (Sambrook, J. and Russel D. W. Molecular Cloning, a laboratory manual, 3rd ed. Cold Spring Harbor Laboratory Press, NY, 2001). Briefly, after PAGE the samples were transferred onto the nitrocellulose membrane and the latter subjected to the standard ELISA procedure. The anti-GTFB mouse monoclonal antibody was previously characterized (Fukushima, K., Okada, T., Ochiai, K., Infection and Immunity 61:323-328 (1993), incorporated herein by reference). The secondary antibody (HRP-linked goat anti-mouse) and the detection reagents were purchased from Cell Signaling Technology (Beverly, Mass.).
(§2) Synthetic CSP was dissolved in water to the concentration of 1 mg/mL as described in Li, Y-H et al., J. of Bact., 183:897-908 (2001). […]
(§3) A Western blot analysis was performed to determine the effect of CSP on the level of GTFB expression. […] As a control, the same blot was analyzed with antibody specific to FTF, where it was observed that CSP has no effect on FTF expression (FIG. 7, panel 2).

FTF expression = experiment: Western blot of FTF expression (control) after addition of CSP; assay type: cell-based, S. mutans; conditions: same blot, antibody specific to FTF; FIG. 7 panel 2
Method: as §1, §2, §3

gtfB gene of S. mutans = experiment: Transcriptional fusion assay (gtfB promoter-luciferase); assay type: cell-based
From the text: The fusion constructs and the transcription assay were previously described (Goodman, S. D. and Gao, Q., Plasmid 43:85-98 (2000)). Briefly, the constructs comprised the upstream regions of the gtfB and gtfC genes fused to the promoterless coding sequence of the firefly luciferase gene and inserted into the plasmid vector pVA838, a shuttle plasmid capable of propagating in both E. coli and S. mutans marked with erythromycin resistance. The plasmids were introduced into S. mutans GS5 by electroporation and the resulting erythromycin resistant strains were grown in liquid cultures and collected at various optical densities. The reporter gene (luciferase) expression was detected by measuring luminescence upon the addition of luciferin (the substrate for luciferase), see Goodman, S. D. and Gao Q. Plasmid 42:154-157 (1999), incorporated herein by reference.
as §2
The transcriptional fusion assay was performed to determine whether CSP inhibits the expression of the gtfB gene of S. mutans. […] When the expression peaked at the end of the lag phase prior to the exponential growth, the cells were challenged with increasing concentrations of CSP for an incubation period of 10 minutes and assessed for luminescence, the measure of reporter gene expression. […]

S. mutans = experiment: In vitro attachment assay to a smooth surface (Petri dish) with sucrose; assay type: cell-based; conditions: CSP at 8 µg/mL for 10 minutes prior to one hour incubation on Petri dishes with sucrose; without CSP up to 51%; FIG. 9
Method: The bacteria were grown in liquid cultures to the desired optical density. 20 ml of the cultures were then transferred into Petri dishes and sucrose added to the final concentration of 2%. The incubation was resumed for one hour, after which the liquid fraction was withdrawn and the fresh medium was added into which the layer of attached cells was scraped. The percentage of the attached bacteria was determined as the ratio of the optical densities of the attached to the total (a sum of attached and unattached) bacteria.
Synthetic CSP was dissolved in water to the concentration of 1 mg/mL as described in Li, Y-H et al., J. of Bact., 183:897-908 (2001). The cultures were grown in Todd Hewitt Broth (THB) supplemented with 5% horse serum. CSP was added to the cultures at the time of diluting the overnight culture (time zero of the culture growth) to a designated concentration between 1 and 8 mcg/mL. The incubation then continued up to the optical density where the expression of GTF is maximal (OD 650=0.1). The cultures where then collected and used in Western blotting with anti-glucosyltransferase (gtf) antibody. […]
An in vitro assay was performed to determine whether CSP can inhibit the attachment of S. mutans to a smooth surface. When sucrose was added to the medium, the wild-type S. mutans readily attached to the surface of a Petri dish. […]

[2] = test system: S. mutans wild-type strains UA140 and UA159; experiment: Growth inhibition of S. mutans culture by CSP pulse (96-well plate, cell density); assay type: cell-based
Method: Previously, it was assumed that quorum sensing may be an on/off type of switching event wherein when the quorum sensing molecule reaches a certain threshold, a new behavior is […] and vice versa. The inventors have unexpectedly discovered that the QS regulated gene expression is not an all-or-nothing type of system, but actually has a dose-dependent response. […] At a 100-fold higher concentration (400 μM), CSP inhibits the growth of a S. mutans culture by 50%.
The experiment was performed in a 96-well plate with triplicate wells for each treatment. Cell density was measured by using a plate reader (BioRad). The experiment was repeated three times. Numbers represent the average of the triplicate samples from one representative experiment. Variations between experiments were within 20%.
These experiments were designed to mimic the conditions of the dental hygiene regimen. Specifically, the bacteria were “pulsed” with CSP. The peptide was added for a mere 10 minutes, washed away and the incubation continued in the fresh medium. In this set-up the inhibitory effect persisted for a long time and became undetectable only after 16 hours of the culture growth. Competition experiments have also shown that a mere 3-hour advantage is sufficient to ensure that a resident species in a biofilm will out compete the newcomer.

Question: Which results are given for SGSLSTFFRLFNRSFTQALGK [CSP]?
Answer: peak expression of GTFB (Western blot) [1]: lowered proportionally to the amount of peptide added; FTF expression (Western blot) (FTF expression): no effect; inhibition of the gtf genes (gtfB gene of S. mutans; CSP 8 μg/ml (4 μM)): desired inhibition of the gtf genes; gtfB reporter gene expression (luminescence) (gtfB gene of S. mutans; increasing concentrations of CSP, 10 minutes incubation at peak expression, FIG. 8): increasing concentrations of CSP increased the magnitude of repression; bacterial cells localized to the attached layer (S. mutans): less than 8%; inhibition of growth of S. mutans culture ([2]; CSP 400 μM, 10 minute pulse, FIG. 12): 50%; effect on cell division and viability ([2]; CSP 1.6 mM, 10 minute pulse, FIG. 12): cell division stops and cells begin to die; time of culture growth after which the inhibitory effect became undetectable ([2]; CSP added for 10 minutes, washed away, incubation in fresh medium): 16 h
